Our source for the Kd values is publication PMC5848141, “A Pyridazine-Based Fluorescent Probe Targeting Aβ Plaques in Alzheimer's Disease” (Journal of Analytical Methods in Chemistry, 2018).

In the test the target is T1, β-amyloid Aβ42 (aggregates) (Homo sapiens, UniProt P05067).
T1 construct: gene APP; synthetic Aβ42 peptide, aggregated (fibrils)
As to the kind of experiment: fluorescence saturation titration of probe with […] aggregated Aβ[…] in PBS. The format is binding. The following applies: read-out: Probe 3.

The structures appear in SMILES notation.

T1 sequence (P05067 672-713 limits assumed): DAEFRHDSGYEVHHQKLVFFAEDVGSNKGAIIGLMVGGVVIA

For the compound `CN(C)c1ccc(/C=C/n2ncc3c(c2=O)Oc2ccc(C=C(C#N)C(=O)O)cc2O3)cc1` [compound 3, probe 3], the Kd came to 350 ± 30 nM.
